Assay results as given in patent EP2923697B1, “Extract and novel isolated compound from Aspergillus terreus for treatment of mouth microbial infections” (King Saud University, priority 2014, dated 2015).
Converted amounts (≈) assume the structure as drawn.

Assays:
Streptococcus gordonii [1] = test: MIC determination, micro-dilution method; type: cell-based; conditions: read-out: Minimum Inhibitory Concentration
Text: (§1) Mouth microbial representatives including unicellular fungi; Candida albicans (RCMB 05382), Candida glabrata (RCMBA 05386), Candida parapsilosis (RCMBA 06002), Candida tropicalis (RCMB 05384), Gram-positive bacteria; Lactobacillus acidophilus (RCMBA 4267), Streptococcus gordonii (RCMBA 2004), Streptococcus mutans (RCMBA 4131), and Gram-negative bacteria; Pseudomonas aeruginosa (RCMBA 1002) were obtained from the Regional Center for Mycology and Biotechnology (RCMB), Al-Azhar University, Cairo, Egypt, as test organisms.
(§2) The minimum inhibitory concentration (MIC) was determined by micro-dilution method using serially diluted (2 folds) extract and isolated compound. MIC of the extract was determined by dilution of extract and isolated compound of concentrations of 0.0-1000 µg/ml. Equal volume of each extract and nutrient broth were mixed in a test tube. Specifically 0.1 ml of standardized inoculum (1-2 X 10^7 CFU/ml) was added in each tube. The tubes were incubated at 37°C for 24-48 h. Two control tubes containing the growth medium, saline and the inoculum were maintained for each test batch. The lowest concentration (highest dilution) of the extract that produced no visible microbial growth (no turbidity) when compared with the control tubes were regarded as MIC.

[2] = system: Lactobacillus acidophilus; test: MIC determination, micro-dilution method; type: cell-based; conditions: read-out: Minimum Inhibitory Concentration
Text: as §1, §2

Streptococcus mutans [3] = test: MIC determination, micro-dilution method; type: cell-based; conditions: read-out: Minimum Inhibitory Concentration
Text: as §1, §2

Pseudomonas aeruginosa [4] = test: MIC determination, micro-dilution method; type: cell-based; conditions: read-out: Minimum Inhibitory Concentration
Text: as §1, §2

Streptococcus gordonii [5] = test: Antimicrobial activity, well diffusion method; type: cell-based; conditions: 5mg/ml of sample around well (6 mm), mean ± Standard deviation
Text: (§3) Mouth microbial representatives including unicellular fungi; Candida albicans (RCMB 05382), Candida glabrata (RCMBA 05386), Candida parapsilosis (RCMBA 06002), Candida tropicalis (RCMB 05384), Gram-positive bacteria; Lactobacillus acidophilus (RCMBA 4267), Streptococcus gordonii (RCMBA 2004), Streptococcus mutans (RCMBA 4131), and Gram-negative bacteria; Pseudomonas aeruginosa (RCMBA 1002) were obtained from the Regional Center for Mycology and Biotechnology (RCMB), Al-Azhar University, Cairo, Egypt, as test organisms. Antimicrobial activity was determined by the well diffusion method. Petri plates contained 20 ml of Nutrient (for bacteria) or Malt extract (for fungi). Agar medium were seeded with 1-3 day cultures of microbial inoculums (1-2 X 10^7 CFU/ml). […] The assessment of antimicrobial activity was based on measurement of the diameter of the inhibition zone formed around the well.

[6] = system: Lactobacillus acidophilus; test: Antimicrobial activity, well diffusion method; type: cell-based; conditions: 5mg/ml of sample around well (6 mm), mean ± Standard deviation
Text: as §3

Streptococcus mutans [7] = test: Antimicrobial activity, well diffusion method; type: cell-based; conditions: 5mg/ml of sample around well (6 mm), mean ± Standard deviation
Text: as §3

Pseudomonas aeruginosa [8] = test: Antimicrobial activity, well diffusion method; type: cell-based; conditions: 5mg/ml of sample around well (6 mm), mean ± Standard deviation
Text: as §3

S. mutans = test: In-vitro activity in combination with Coe-Comfort tissue conditioner; type: cell-based, Streptococcus mutans
[9] = system: Lactobacillus acidophilus; test: In-vitro activity in combination with Coe-Comfort tissue conditioner, CFU count; type: cell-based; conditions: for No. colony-forming units (CFU): mixed with Coe-Comfort
Streptococcus gordonii [10] = test: In-vitro activity in combination with Coe-Comfort tissue conditioner; type: cell-based

Question: How did the MIC (Streptococcus gordonii [1]) turn out when [H]/N=C(\N/C(=N/[H])NCCCCCCNC(=N)NC(=N)Nc1ccc(Cl)cc1)Nc1ccc(Cl)cc1 [Chlorhexidine, reference compound] was run?
Answer: Its MIC is 0.98 µg/mL (≈ 1.94 µM).

Question: And the MIC [2]?
Answer: Its MIC is 0.06 µg/mL (≈ 0.119 µM).

Question: What about the MIC (Streptococcus mutans [3]) of the same molecule?
Answer: Its MIC is 0.49 µg/mL (≈ 0.969 µM).

Question: What about the MIC (Pseudomonas aeruginosa [4]) of the same molecule?
Answer: Its MIC is 3.9 µg/mL (≈ 7.72 µM).

Question: What about the “Diameter of inhibition zone” value (Streptococcus gordonii [5]) of the same molecule?
Answer: Its value is 22.1± 0.51 mm.

Question: And the “Diameter of inhibition zone” value [6]?
Answer: Its value is 26.2± 0.42 mm.

Question: What about the “Diameter of inhibition zone” value (Streptococcus mutans [7]) of the same molecule?
Answer: Its value is 23.5 ± 0.34 mm.

Question: What about the “Diameter of inhibition zone” value (Pseudomonas aeruginosa [8]) of the same molecule?
Answer: Its value is 20.1 ± 0.19 mm.

Question: What about the “concentration giving total growth inhibition” value (S. mutans) of the same molecule?
Answer: The value was 15.63 µg/mL.

Question: What about the “concentration giving total growth inhibition” value ([9]; in combination with Coe-comfort tissue conditioner) of the same molecule?
Answer: Its value is 15.63 µg/mL.

Question: What about the “No. colony-forming units (CFU)” value ([9]; concentration 000.24 µg/ml) of the same molecule?
Answer: Its value is 6.4 x 10^5.

Question: What about the “No. colony-forming units (CFU)” value ([9]; concentration 000.49 µg/ml) of the same molecule?
Answer: Its value is 2.3 x 10^5.

Question: What about the “No. colony-forming units (CFU)” value ([9]; concentration 000.98 µg/ml) of the same molecule?
Answer: Its value is 3.1 x 10^4.

Question: And the “No. colony-forming units (CFU)” value ([9]; concentration 001.95 µg/ml)?
Answer: Its value is 5.4 x 10^3.

Question: What about the “No. colony-forming units (CFU)” value ([9]; concentration 003.90 µg/ml) of the same molecule?
Answer: The value was 1.9 x 10^3.

Question: What about the “No. colony-forming units (CFU)” value ([9]; concentration 007.81 µg/ml) of the same molecule?
Answer: Its value is 7.9 x 10^2.

Question: What about the “No. colony-forming units (CFU)” value ([9]; concentration 015.63 µg/ml) of the same molecule?
Answer: Its value is 00.00.

Question: And the “No. colony-forming units (CFU)” value ([9]; concentration 031.25 µg/ml)?
Answer: The value was 00.00.

Question: What about the “No. colony-forming units (CFU)” value ([9]; concentration 062.50 µg/ml) of the same molecule?
Answer: The value was 00.00.

Question: What about the “concentration giving total growth inhibition” value (Streptococcus gordonii [10]) of the same molecule?
Answer: Its value is 3.9 µg/mL.
